{"source": "patent US11510962B2", "about": "“Manufacture of degarelix” (Ferring B.V., priority 2012, dated 2022)", "key": {"[1]": {"test": "De-aggregation experiments with acetic acid: viscosity of degarelix stock solution", "format": "physicochemical", "procedure": "Determination of the viscosity of the drug substance and drug product solution is based on the current edition of Ph. Eur. and USP procedure using a rotating viscometer equipped with a cone-plate measuring system with D=60 mm and 1°. The shear rate is increased from 0 to 500 s in 20 steps, using a controlled rate (CR) rotation step program at a constant temperature of 20±0.2° C., making certain that the system reaches equilibrium before the viscosity is recorded at a shear rate of 500 s^−1. During the de-aggregation studies the temperature was set to 5, 20, 25, or 35° C. The concentration of degarelix drug substance was 5, 15, 25, or 35 mg/ml. The concentration of acetic acid is 13, 15, 18, 20, 22, 26, 30, 35 or 40%. Viscosity: Take out 1.2 ml at T=1, 60, 120, and 240 min. De-aggregation Experiment Protocol, total volume 20 or 69 ml: • 1. Weigh the required amount of stock solution into a beaker. Equilibrate to the desired temperature • 2. Weigh the required amount of acetic acid (100%) into a beaker • 3. Mix the acetic acid (100%) with 3 or 10 ml of milli-Q water and equilibrate to the desired temperature • 4. Mix the degarelix stock solution with the acetic acid/milli-Q water solution • 5. Fill milli-Q water up to 20 or 69 ml • 6. Mix thoroughly • 7. Take samples for viscosity and optical density as described above. Note the appearance of the solution during the experiment"}, "[2]": {"test": "De-aggregation experiments with acetic acid: final optical density", "format": "physicochemical", "procedure": "During the de-aggregation studies the temperature was set to 5, 20, 25, or 35° C. The concentration of degarelix drug substance was 5, 15, 25, or 35 mg/ml. The concentration of acetic acid is 13, 15, 18, 20, 22, 26, 30, 35 or 40%. Optical Density (OD): A sample (1 ml) should be taken at the end of each experiment for measurement of the final optical density. De-aggregation Experiment Protocol, total volume 20 or 69 ml: • 1. Weigh the required amount of stock solution into a beaker. Equilibrate to the desired temperature • 2. Weigh the required amount of acetic acid (100%) into a beaker • 3. Mix the acetic acid (100%) with 3 or 10 ml of milli-Q water and equilibrate to the desired temperature • 4. Mix the degarelix stock solution with the acetic acid/milli-Q water solution • 5. Fill milli-Q water up to 20 or 69 ml • 6. Mix thoroughly • 7. Take samples for viscosity and optical density as described above. Note the appearance of the solution during the experiment"}, "[3]": {"conditions": "in vivo"}, "[4]": {"biological_target": "GnRH receptors in the pituitary (Homo sapiens, UniProt P30968)", "sequence (P30968 whole entry)": "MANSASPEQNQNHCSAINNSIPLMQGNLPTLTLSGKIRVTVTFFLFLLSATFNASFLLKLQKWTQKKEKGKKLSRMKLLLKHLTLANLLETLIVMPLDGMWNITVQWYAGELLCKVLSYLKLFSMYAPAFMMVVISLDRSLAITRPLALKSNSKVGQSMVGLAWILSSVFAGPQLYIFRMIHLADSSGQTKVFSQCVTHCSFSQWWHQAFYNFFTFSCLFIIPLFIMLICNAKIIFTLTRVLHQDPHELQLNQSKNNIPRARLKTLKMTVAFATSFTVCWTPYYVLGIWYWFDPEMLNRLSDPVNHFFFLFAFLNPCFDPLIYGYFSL", "conditions": "prostate cancer patients; literature; cited from earlier work"}, "[5]": {"test": "Reconstitution of degarelix vials with WFI/surfactant solution: OD (absorbance) at 350 nm", "format": "physicochemical", "conditions": "vials reconstituted to 60 mg/ml degarelix, surfactant 1 mg/ml (0.1%) in WFI, 30 min, 60 min, 120 min, 24 hours", "procedure": "Procedure: • Degarelix batch reconstituted using WFI (as control) and using WFI containing the surfactants. The vials are reconstituted to 60 mg/ml degarelix."}, "[6]": {"test": "In-vitro release profile (IVD assay) of degarelix vials reconstituted with WFI+Tween 20", "format": "physicochemical", "conditions": "40 mg/ml degarelix; Tween 20 at 1, 0.5, 0.25 mg/ml; control WFI", "procedure": "Tween 20 concentrations tested:\n1 mg/ml; 0.5 mg/ml; 0.25 mg/ml;"}, "[7]": {"conditions": "5 °C, degarelix 5 mg/ml, AcOH 40%"}, "[8]": {"conditions": "5 °C, degarelix 25 mg/ml, AcOH 13%"}, "[9]": {"conditions": "5 °C, degarelix 25 mg/ml, AcOH 15%"}, "[10]": {"conditions": "5 °C, degarelix 25 mg/ml, AcOH 20%"}, "[11]": {"conditions": "5 °C, degarelix 35 mg/ml, AcOH 26%"}, "[12]": {"conditions": "20 °C, degarelix 15 mg/ml, AcOH 30%"}, "[13]": {"conditions": "25 °C, degarelix 25 mg/ml, AcOH 20%"}, "[14]": {"conditions": "35 °C, degarelix 25 mg/ml, AcOH 15%"}, "[15]": {"conditions": "35 °C, degarelix 25 mg/ml, AcOH 18%"}, "[16]": {"conditions": "35 °C, degarelix 25 mg/ml, AcOH 20%"}, "[17]": {"conditions": "35 °C, degarelix 35 mg/ml, AcOH 22%"}, "[18]": {"conditions": "35 °C, degarelix 35 mg/ml, AcOH 26%"}, "[19]": {"conditions": "35 °C, degarelix 35 mg/ml, AcOH 30%"}, "[20]": {"conditions": "35 °C, degarelix 35 mg/ml, AcOH 35%"}}, "note": "Square brackets hold non-standard residues; d marks the D form. Peptide text beside a SMILES is read from it. * marks the point of attachment. dPhe(4-NHCONH2) = NC(=O)Nc1ccc(C[C@@H](N)C(=O)O)cc1; Dihydroorotyl(S) = O=C1C[C@@H](C(=O)*)NC(=O)N1; dPhe(4-Cl) = N[C@H](Cc1ccc(Cl)cc1)C(=O)O; Phe(4-NH2) = Nc1ccc(C[C@H](N)C(=O)O)cc1; d2Nal = N[C@H](Cc1ccc2ccccc2c1)C(=O)O; Lys(iPr) = CC(C)NCCCC[C@H](N)C(=O)O; d3Pal = N[C@H](Cc1cccnc1)C(=O)O", "data": [{"compound": "CC(=O)N[C@H](Cc1ccc2ccccc2c1)C(=O)N[C@H](Cc1ccc(Cl)cc1)C(=O)N[C@H](Cc1cccnc1)C(=O)N[C@@H](CO)C(=O)N[C@@H](Cc1ccc(NC(=O)[C@@H]2CC(=O)NC(=O)N2)cc1)C(=O)N[C@H](Cc1ccc(NC(N)=O)cc1)C(=O)N[C@@H](CC(C)C)C(=O)N[C@@H](CCCCNC(C)C)C(=O)N1CCC[C@H]1C(=O)N[C@H](C)C(N)=O", "note": "[Degarelix, D-Alaninamide, N-acetyl-3-(2-naphthalenyl)-D-alanyl-4-chloro-D-phenylaanyl-3-(3-pyridinyl)-D-alanyl-L-seryl-4-[[[(4S)-hexahydro-2,6-dioxo-4-pyrimidinyl]carbonyl]amino]-L-phenylalanyl-4-[(aminocarbonyl)amino]-D-phenylaanyl-L-leucyl-N6-(1-methylethyl)-L-lysyl-L-prolyl-] (Ac-[d2Nal][dPhe(4-Cl)][d3Pal]S[Phe(4-NH2)](Dihydroorotyl(S))[dPhe(4-NHCONH2)]L[Lys(iPr)]P[dA]-NH2)", "values": [{"measurement": "Viscosity @ 500 Time = 240 min", "setting": "[1]; [7]", "result": 1.9, "unit": "mPas * s"}, {"measurement": "Viscosity @ 500 Time = 240 min", "setting": "[1]; [8]", "result": 2.3, "unit": "mPas * s"}, {"measurement": "Viscosity @ 500 Time = 240 min", "setting": "[1]; [9]", "result": 1.9, "unit": "mPas * s"}, {"measurement": "Viscosity @ 500 Time = 240 min", "setting": "[1]; [10]", "result": 1.7, "unit": "mPas * s"}, {"measurement": "Viscosity @ 500 Time = 240 min", "setting": "[1]; [11]", "result": 1.9, "unit": "mPas * s"}, {"measurement": "Viscosity @ 500 Time = 240 min", "setting": "[1]; [12]", "result": 1.8, "unit": "mPas * s"}, {"measurement": "Viscosity @ 500 Time = 240 min", "setting": "[1]; [13]", "result": 2.0, "unit": "mPas * s"}, {"measurement": "Viscosity @ 500 Time = 240 min", "setting": "[1]; [14]", "result": 7.2, "unit": "mPas * s"}, {"measurement": "Viscosity @ 500 Time = 240 min", "setting": "[1]; [15]", "result": 2.1, "unit": "mPas * s"}, {"measurement": "Viscosity @ 500 Time = 240 min", "setting": "[1]; [16]", "result": 1.7, "unit": "mPas * s"}, {"measurement": "Viscosity @ 500 Time = 240 min", "setting": "[1]; [17]", "result": 2.1, "unit": "mPas * s"}, {"measurement": "Viscosity @ 500 Time = 240 min", "setting": "[1]; [18]", "result": 1.9, "unit": "mPas * s"}, {"measurement": "Viscosity @ 500 Time = 240 min", "setting": "[1]; [19]", "result": 2.0, "unit": "mPas * s"}, {"measurement": "Viscosity @ 500 Time = 240 min", "setting": "[1]; [20]", "result": 2.1, "unit": "mPas * s"}, {"measurement": "Optical Density Time = 240 min", "setting": "[2]; [7]", "result": 0.00}, {"measurement": "Optical Density Time = 240 min", "setting": "[2]; [8]", "result": 0.10}, {"measurement": "Optical Density Time = 240 min", "setting": "[2]; [9]", "result": 0.09}, {"measurement": "Optical Density Time = 240 min", "setting": "[2]; [10]", "result": 0.06}, {"measurement": "Optical Density Time = 240 min", "setting": "[2]; [11]", "result": 0.08}, {"measurement": "Optical Density Time = 240 min", "setting": "[2]; [12]", "result": 0.03}, {"measurement": "Optical Density Time = 240 min", "setting": "[2]; [13]", "result": 0.10}, {"measurement": "Optical Density Time = 240 min", "setting": "[2]; [14]", "result": 0.86}, {"measurement": "Optical Density Time = 240 min", "setting": "[2]; [15]", "result": 0.07}, {"measurement": "Optical Density Time = 240 min", "setting": "[2]; [16]", "result": 0.05}, {"measurement": "Optical Density Time = 240 min", "setting": "[2]; [17]", "result": 0.13}, {"measurement": "Optical Density Time = 240 min", "setting": "[2]; [18]", "result": 0.10}, {"measurement": "Optical Density Time = 240 min", "setting": "[2]; [19]", "result": 0.07}, {"measurement": "Optical Density Time = 240 min", "setting": "[2]; [20]", "result": 0.08}, {"measurement": "sustained release from the depot", "setting": "[3]", "result": "sustained release of the active over months"}, {"measurement": "testosterone surge or clinical flare", "setting": "[4]", "result": "does not cause testosterone surge or clinical flare"}]}, {"compound": "Polysorbate 20 [Tween 20]", "values": [{"measurement": "optical density versus control", "setting": "[5]", "result": "reduced the optical density to a level below the control"}, {"measurement": "in-vitro release profiles", "setting": "[6]", "result": "not altered"}]}]}
